Test results reported in patent US20110105541A1, “ALKYL SUBSTITUTED ARYLINDENOPYRIMIDINES AND THEIR USE AS HIGHLY SELECTIVE ADENOSINE A2a RECEPTOR ANTAGONISTS” (priority 2009, published 2011).

Tests used:
[1] = molecular target: T1, human adenosine A1 receptor (Homo sapiens, UniProt P30542); assay: Adenosine A1 receptor functional assay (A1GAL2), cAMP inducible beta-galactosidase reporter, r-PIA/Forskolin challenge; type: cell-based; settings: CHO-K1 cells overexpressing human A1 receptor; antagonist curve against 4 nM r-PIA/1 uM Forskolin
T1 construct: expressed in transfected cells; host or cells: CHO-K1
T1 sequence (P30542 1-326): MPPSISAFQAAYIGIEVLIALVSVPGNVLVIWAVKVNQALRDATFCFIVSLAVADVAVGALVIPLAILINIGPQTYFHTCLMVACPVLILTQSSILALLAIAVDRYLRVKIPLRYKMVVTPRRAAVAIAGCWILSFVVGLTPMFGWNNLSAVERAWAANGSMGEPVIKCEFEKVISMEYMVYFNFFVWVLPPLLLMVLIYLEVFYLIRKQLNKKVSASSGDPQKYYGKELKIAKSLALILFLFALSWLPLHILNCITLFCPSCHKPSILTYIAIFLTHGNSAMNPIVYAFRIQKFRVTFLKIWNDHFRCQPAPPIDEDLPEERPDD
Procedure: Adenosine A1 Receptor Functional Assay (A1GAL2)
To initiate the functional assay, cryopreserved CHO—K^1 cells overexpressing the human adenosine A1 receptor and containing a cAMP inducible beta-galactosidase reporter gene were thawed, centrifuged, DMSO containing media removed, and then seeded with fresh culture media into clear 384-well tissue culture treated plates (BD #353961) at a concentration of 10K cells/well. Prior to assay, these plates were cultured for two days at 37° C., 5% CO2, 90% Rh. On the day of the functional assay, culture media was removed and replaced with 45 μL assay medium (Hams/F-12 Modified (Mediatech # 10-080CV) supplemented w/0.1% BSA). Test compounds were diluted and 11 point curves created at a 1000× concentration in 100% DMSO. Immediately after addition of assay media to the cell plates, […] of the appropriate test compound antagonist or agonist control curves were added to cell plates using a Cartesian Hummingbird. Compound curves were allowed to incubate at room temperature on cell plates for approximately 15 minutes before addition of a 4 nM r-PIA (Sigma P4532)/1 uM Forskolin (Sigma F3917) agonist challenge (5 μL volume). A control curve of r-PIA in 1 uM Forskolin, a DMSO/Media control, and a single dose of Forskolin were also included on each plate. After additions, cell plates were allowed to incubate at 37° C., 5% CO2, 90% Rh for 5.5-6 hours. After incubation, media was removed, and cell plates were washed 1×50 μL with DPBS w/o Ca & Mg (Mediatech 21-031-CV). Into dry wells, 20 μL of 1× Reporter Lysis Buffer (Promega E3971 (diluted in dH2O from 5× stock)) was added to each well and plates frozen at −20° C. overnight. For β-galactosidase enzyme colorimetric assay, plates were thawed out at room temperature and 20 μL 2× assay buffer (Promega) was added to each well. Color was allowed to develop at 37° C., 5% CO2, 90% Rh for 1-1.5 h or until reasonable signal appeared. […] Plates were counted at 405 nm on a SpectraMax Microplate Reader (Molecular Devices). Data was analyzed in Microsoft Excel and IC/EC50 curves were fit using a standardized macro.

[2] = molecular target: T2, human adenosine A2A receptor (Homo sapiens, UniProt P29274); assay: Adenosine A2A receptor functional assay (A2AGAL2), cAMP inducible beta-galactosidase reporter, NECA challenge; type: cell-based; settings: for IC50: CHO-K1 cells overexpressing human A2A receptor, antagonist curve against 15 nM NECA; for A1/A2A: ratio of A1Gal2 to A2AGal2 values (selectivity for A2A over A1)
T2 construct: expressed in transfected cells; host or cells: CHO-K1
T2 sequence (P29274 whole entry): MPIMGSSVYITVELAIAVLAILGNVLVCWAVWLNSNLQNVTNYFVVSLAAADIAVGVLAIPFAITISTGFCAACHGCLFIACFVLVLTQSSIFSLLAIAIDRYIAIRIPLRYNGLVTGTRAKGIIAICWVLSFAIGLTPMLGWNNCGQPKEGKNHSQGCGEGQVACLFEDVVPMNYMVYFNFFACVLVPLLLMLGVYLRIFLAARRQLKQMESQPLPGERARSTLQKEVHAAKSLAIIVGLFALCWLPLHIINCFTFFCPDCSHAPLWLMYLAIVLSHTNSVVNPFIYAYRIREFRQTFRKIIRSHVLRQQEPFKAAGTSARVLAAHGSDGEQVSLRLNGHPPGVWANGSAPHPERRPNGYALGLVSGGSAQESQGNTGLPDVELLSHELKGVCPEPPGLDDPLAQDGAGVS
Procedure: Adenosine A2 Receptor Functional Assay (A2AGAL2)
To initiate the functional assay, cryopreserved CHO—K1 cells overexpressing the human adenosine A2A receptor and containing a cAMP inducible beta-galactosidase reporter gene were thawed, centrifuged, DMSO containing media removed, and then seeded with fresh culture media into clear 384-well tissue culture treated plates (BD #353961) at a concentration of 10K cells/well. Prior to assay, these plates were cultured for two days at 37° C., 5% CO2, 90% Rh. On the day of the functional assay, culture media was removed and replaced with 45 μL assay medium (Hams/F-12 Modified (Mediatech # 10-080CV) supplemented w/0.1% BSA). Test compounds were diluted and 11 point curves created at a 1000× concentration in 100% DMSO. Immediately after addition of assay media to the cell plates, […] of the appropriate test compound antagonist or agonist control curves were added to cell plates using a Cartesian Hummingbird. Compound curves were allowed to incubate at room temperature on cell plates for approximately 15 minutes before addition of a 15 nM NECA (Sigma E2387) agonist challenge (5 μL volume). A control curve of NECA, a DMSO/Media control, and a single dose of Forskolin (Sigma F3917) were also included on each plate. After additions, cell plates were allowed to incubate at 37° C., 5% CO2, 90% Rh for 5.5-6 hours. After incubation, media were removed, and cell plates were washed 1×50 μL with DPBS w/o Ca & Mg (Mediatech 21-031-CV). Into dry wells, 20 μL of 1× Reporter Lysis Buffer (Promega E3971 (diluted in dH2O from 5× stock)) was added to each well and plates frozen at −20° C. overnight. For β-galactosidase enzyme colorimetric assay, plates were thawed out at room temperature and 20 μL 2× assay buffer (Promega) was added to each well. Color was allowed to develop at 37° C., 5% CO2, 90% Rh for 1-1.5 h or until reasonable signal appeared. The colorimetric reaction was stopped with the addition of 60 μL/well 1M sodium carbonate. Plates were counted at 405 nm on a SpectraMax Microplate Reader (Molecular Devices). Data was analyzed in Microsoft Excel and IC/EC50 curves were fit using a standardized macro.

IC50 [1] [nM]	IC50 [2] [nM]	A1/A2A [2]	Compound
3280	11.9	276.249	Cc1nc(C)c(Cc2cccc3c2-c2nc(N)nc(-c4ccc(F)cc4)c2C3=O)s1 [Example 1, 2-Amino-9-(2,4-dimethyl-thiazol-5-ylmethyl)-4-(4-fluoro-phenyl)-indeno[1,2-d]pyrimidin-5-one]
147	0.75	195.975	Nc1nc(-c2ccc(F)cc2)c2c(n1)-c1c(Cc3cn[nH]c3)cccc1C2=O [Example 2, 2-Amino-4-(4-fluoro-phenyl)-9-(1H-pyrazol-4-ylmethyl)-indeno[1,2-d]pyrimidin-5-one]
2670	41.3	64.5654	Cc1noc(C)c1Cc1cccc2c1-c1nc(N)nc(-c3ccc(F)cc3)c1C2=O [Example 3, 2-Amino-9-(3,5-dimethyl-isoxazol-4-ylmethyl)-4-(4-fluoro-phenyl)-indeno[1,2-d]pyrimidin-5-one]
